Molecular target: T1, CRBN (Cereblon) (Homo sapiens, UniProt Q96SW2)
T1 construct: CRBN–DDB1; with DDB1
Assay: competitive FP displacement of BODIPY-labelled IMiD probe, without ENL YEATS
Format: binding

Compound: O=C(COc1cccc2c1C(=O)N(C1CCC(=O)NC1=O)C2=O)NCCOCCOCCNS(=O)(=O)Nc1cccc(-c2cn3cc(C(=O)NC4CCC4)ccc3n2)c1 (stereo not shown) [SR-1114]
- IC50: 155 nM
